Test results published in PMC9887155, “Kinetics of cone specific G-protein signaling in avian photoreceptor cells” (Frontiers in Molecular Neuroscience, 2023).
“Also recorded” adds a separate entry of the source. Ends that are not written are not given here.

Assays:
Gtα/Giα chimera = experiment: FRET interaction of dansylated peptides with Gtα/Giα in solution; type: binding, European robin (Erithacus rubecula); settings: excitation 280 nm; for decrease of fluorescence emission in the presence of Gtα/Giα: FRET, dansylated peptide and Gtα/Giα each 16.7 μM, GDP 10 μM, incubated on ice in the dark 30 min, pH 7.4; for fluorescence emission maximum: dansylated peptide 16.7 μM, 80 mM Hepes pH 7.4, 40 mM KCl, 150 mM NaCl, 10 mM MgCl2
Experimental: Interaction of the Gtα/Giα chimera with peptide LWO2 and the control peptide LWO2-sc was tested by Förster resonance energy transfer (FRET) measurements. We designed an experiment using fluorescence excitation at 280 nm of endogenous Trp residues in Gtα/Giα and peptide and emission of Trp fluorescence at 334 nm that excited the fluorescence dye 5-Dimethylamino-1-naphthalinsulfonyl chloride (dansyl chloride). The emission spectrum of dansyl chloride was recorded between 400 and 550 nm. For this purpose, we coupled dansyl chloride to free amino groups in LWO2 and LWO2-sc. Peptides were solved in H20 bidest (1 mg/ml) and 66 μl of a peptide solution were mixed with 50 μl borat buffer (0.1 M, pH 9.5). Twenty-five μL dansyl chloride (1 mg/ml in acetone) were added and the solutions were incubated at room temperature for 5 h in darkness. Afterwards, we separated non-reacted dansyl chloride, non-reacted peptides and covalently labeled LWO2 or LWO2-sc by reversed phase liquid chromatography (HPLC) using a LiChrospher® 100 RP-18 (5 μm) column (Merck, Germany) in a Hitachi Primaide HPLC system. The column was equilibrated in 0.1% trifluoro-acetic acid (v/v) in H2O bidest. Separation was achieved by applying a gradient from 0.1% trifluoro-acetic acid (v/v) in H2O bidest to 100% acetonitrile with 0.1% trifluoro-acetic acid (v/v) in 55 min. Peaks were detected at 280 nm and the area was used to calculate the coupling yield that was at 84–97% for both peptides. FRET measurements employing the FRET pair intrinsic tryptophan and attached dansyl were performed with a fluorescence spectrometer from photon Technology International. The basic operation principle was essentially as described before ([Behnen et al., 2009]; [Scholten and Koch, 2011]) using the following modifications. Shortly before recording the spectrum, the dansylated LWO2 (or LWO2-sc) containing fraction of the HPLC elution was diluted in fluorescence buffer (80 mM Hepes pH 7.4, 40 mM KCl, 150 mM NaCl, 10 mM MgCl2) at a final concentration of 16.7 μM. After adding the G protein, the mixtures were incubated on ice in the dark for 30 min. During the measurements with the Gtα/Giα, it was present in GDP-bound conformation ([GDP] = 10 μM). The excitation wavelength was set to 280 nm and the emission spectrum was recorded from 400 to 550 nm. Recording and analysis of the data was performed using Photon Technology International software package FELIX32.

[1] = tested on: Gtα/Giα chimera (cone specific G protein α-subunit); experiment: SPR interaction of LWO peptides with immobilized Gtα/Giα chimera; type: binding, European robin (Erithacus rubecula); settings: for binding to Gtα/Giα (qualitative): immobilized Gtα/Giα, pH 7.4
Experimental: The peptides representing the cytoplasmic loops of LWO (Figure 1) were purchased from Genscript (Netherlands). Sequences of the peptides were deduced from genetic sequences of the European robin genome ([Dunn et al., 2021]). Two control peptides were ordered containing scrambled sequences of LWO2 and LWO3 assigned as LWO2-sc and LWO3-sc, respectively (Table 1). To the N-terminus of each peptide, a linker (CGAGA or CGAGAG) was added to allow for specific covalent coupling via cysteine. All peptides were ordered to a purity of >90% and contained no further N-terminal modifications. The C-terminus of peptides LWO-1-3 were amidated to simulate a continuation of the peptide chain, while LWO-4 was left unmodified to represent the opsin C-terminus. Quality control by LC–MS was performed by Genscript, and concentrations of the peptides were confirmed by UV–vis measurements.
We used a Gtα/Giα chimera to allow functional expression in E. coli according to previous attempts with bovine Gtα ([Skiba et al., 1996]). Cloning of the Gtα variants was performed by PCR mutagenesis of the plasmid described in [Görtemaker et al. (2022)]. In short, the construct contained an N-terminal 6x histidine tag and SUMO (Small Ubiquitin like MOdifier) protein (for metal affinity purification and subsequent tag cleavage) followed by the Gtα chimera. Truncation of 3 and 6 amino acids was performed using the primers 1 and 2 and 1 and 3, respectively. Sequences are available in Supplementary Table S1. The truncated variants were expressed following the same protocol as the full-length protein.
Purification of the Gtα/Giα chimera was performed as exactly described previously ([Görtemaker et al., 2022]). We used the same procedure for purification of the truncated Gtα variants, but we excluded the final size exclusion chromatography. Protein samples were analyzed by standard analytical techniques such as sodium dodecyl-sulfate polyacrylamide gel electrophoresis (SDS-PAGE) and protein quantification according to established procedures in the laboratory ([Elbers et al., 2018]).
Surface plasmon resonance (SPR) measurements were performed on a Biacore 3,000 (GE Healthcare now Cytiva). We followed the general operation principle that had been described before ([Koch, 2000]; [Komolov et al., 2009]). In the present work, we immobilized the non-myristoylated Gtα/Giα chimera or its truncated variants using CM5 sensor chips (GE Healthcare) for all applications exactly as previously described ([Görtemaker et al., 2022]). Immobilization densities of Gtα/Giα were 2.6–3.4 ng/mm^2. The truncated variants Gt-3AA and Gt-6AA bound to the senor chip surface at densities of 3.1–4.2 ng/mm^2. First, we studied the interaction processes by injection of peptides representing the cytoplasmic regions in LWO (Table 1). Two peptides made from the amino acids present in LWO2 and LWO3, but in scrambled order (Table 1), served as controls. We injected different concentrations (10, 50, 100, and 200 nM or alternatively: 10, 25, 45, 55, 75, and 100 nM) at a flow rate of either 25 μl/min or 50 μl/min in SPR running buffer (10 mM HEPES/NaOH, pH 7.4, 150 mM NaCl, 10 mM MgCl2, 0.005% Tween-20, 3.4 mM EDTA). In addition, we coated control surfaces with ubiquitin-like-protease 1 as previously described ([Görtemaker et al., 2022]). For kinetic investigation of LWO2 binding to Gtα/Giα, we injected different peptide concentrations in random order. Regeneration of the surface was performed with a basic-detergent cocktail adopted from [Andersson et al. (1999)] containing final concentrations of 12.5 mM of ethanolamine, Na2PO4, piperazine, and glycine set to a pH of 11.75, as well as containing 0.2% sodium dodecyl sulfate. Despite the relatively harsh conditions, regeneration was judged to be slightly incomplete. […] With the conditions used, reproducible data was still obtained. Sensorgrams were evaluated by nonlinear curve fitting applying the global fitting approach (BIAevaluation software 4.1, GE Healthcare). […]

Q: Which results are given for “dansyl-LWO2: LWO2 with dansyl chloride coupled to free amino groups (CGAGAWERWFVVCKPFGNIKFDGK-NH2; cysteine pairing not given here; also: dansyl coupled to free amino groups)”?
A: decrease of fluorescence emission in the presence of Gtα/Giα (Gtα/Giα chimera): 14,000 relative fluorescence counts; fluorescence emission maximum (Gtα/Giα chimera): 510 nm

Q: For “CGAGAG-NRQFRNCILQLFGKKVDDGSEVSTSRTEVSSVSNSSGS [LWO4, peptide representing the opsin C-terminus of European robin LWO]”, which “binding to Gtα/Giα (qualitative)” value ([1]; peptide 100 nM) is on record?
A: did not indicate a binding process

Q: Which results are given for “dansyl-LWO2-sc: LWO2-sc with dansyl chloride coupled to free amino groups (CGAGAFRVKDGWINPGKFEVWCKF; cysteine pairing not given here; also: dansyl coupled to free amino groups)”?
A: decrease of fluorescence emission in the presence of Gtα/Giα (Gtα/Giα chimera): 9,000 relative fluorescence counts; fluorescence emission maximum (Gtα/Giα chimera): 516 nm

Q: Which “binding to Gtα/Giα (qualitative)” value ([1]; peptide 100 nM) does the source give for “CGAGAG-AIRAVAAQQKESESTQKAEKEVSR [LWO3, peptide representing the third cytoplasmic loop of European robin LWO]” here?
A: slight decrease in RU and a kind of recovery phase; also recorded: did not detect any interaction

Q: And the “positive response during subsequent buffer flow” value ([1]; peptide 100 nM, buffer flow after injection, decreased over time)?
A: ca. 10 RU

Q: What about the “binding to Gtα/Giα (qualitative), 200 nM” value ([1]; peptide 200 nM, Supplementary Figure S1) of the same substance?
A: no specific binding process occurred

Q: With “CGAGA-GSKSQRARAEQVETAQAKAEISVEK [LWO3-sc]” as the substance, how does the “binding to Gtα/Giα (qualitative)” value ([1]; peptide 100 nM) read?
A: did not indicate a binding process

Q: “CGAGA-TAKFKKLRHPLNWI [LWO1, peptide representing a cytoplasmic loop of European robin long wavelength opsin]” was tested. Which “binding to Gtα/Giα (qualitative)” value ([1]; peptide 100 nM) did it give?
A: did not indicate a binding process

Q: Which “fluorescence emission of label-free peptide (control)” value (Gtα/Giα chimera; label-free peptide alone or with Gtα/Giα) does the source give for CGAGA-FRVKDGWINPGKFEVWCKF [LWO2-sc] here?
A: No fluorescence emission was also observed

Q: What about the “binding to Gtα/Giα (qualitative)” value ([1]; peptide 100 nM) of the same substance?
A: slight decrease in resonance units indicating no binding signal
